Results reported in PubChem BioAssay AID328 (DTP/NCI, 2004).
Where “and” joins values, the source holds several entries; their conditions need not be identical. Identical values can stand only once. Toxic doses and inconclusive results are not listed.

Test system: BDF1 mice, P388 leukemia ip, median survival T/C
Test: NCI In Vivo Anticancer Drug Screen. Data for tumor model P388 Leukemia (intraperitoneal) in B6D2F1 (BDF1) mice
Details: endpoint: median survival time, higher = longer survival
Method in brief: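 T/C = treated-group survival ÷ vehicle-control survival; tumour transplanted into mice before dosing.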

[1] = dose: 25.0 mg/kg/injection, schedule: Q01DX009 (ip), vehicle: water
[2] = dose: 50.0 mg/kg/injection, schedule: Q01DX009 (ip), vehicle: water
[3] = dose: 100.0 mg/kg/injection, schedule: Q01DX009 (ip), vehicle: water
[4] = dose: 100.0 mg/kg/injection, schedule: Q04DX003 (ip), vehicle: Klucel (hydroxypropylcellulose) (HPC)
[5] = dose: 200.0 mg/kg/injection, schedule: Q04DX003 (ip), vehicle: Klucel (hydroxypropylcellulose) (HPC)
[6] = dose: 100.0 mg/kg/injection, schedule: Q01DX009 (ip), vehicle: Klucel (hydroxypropylcellulose) (HPC)
[7] = dose: 200.0 mg/kg/injection, schedule: Q01DX009 (ip), vehicle: Klucel (hydroxypropylcellulose) (HPC)
[8] = dose: 400.0 mg/kg/injection, schedule: Q01DX009 (ip), vehicle: Klucel (hydroxypropylcellulose) (HPC)
[9] = dose: 400.0 mg/kg/injection, schedule: Q04DX003 (ip), vehicle: Klucel (hydroxypropylcellulose) (HPC)
[10] = dose: 100.0 mg/kg/injection, schedule: Q01DX009 (ip), vehicle: saline
[11] = dose: 25.0 mg/kg/injection, schedule: Q01DX009 (ip), vehicle: saline with Tween-80
[12] = dose: 50.0 mg/kg/injection, schedule: Q01DX009 (ip), vehicle: saline with Tween-80
[13] = dose: 50.0 mg/kg/injection, schedule: Q04DX003 (ip), vehicle: saline with Tween-80
[14] = dose: 100.0 mg/kg/injection, schedule: Q01DX009 (ip), vehicle: saline with Tween-80
[15] = dose: 100.0 mg/kg/injection, schedule: Q04DX003 (ip), vehicle: saline with Tween-80
[16] = dose: 50.0 mg/kg/injection, schedule: Q01DX009 (ip), vehicle: Klucel (hydroxypropylcellulose) (HPC)

Structure (SMILES): C/C(=C\C(=O)O)CC(=O)O
- T/C [1]: 109 % of control
- T/C [2]: 95 % of control
- T/C (dose: 50.0 mg/kg/injection, schedule: Q04DX003 (ip), vehicle: water): 92 % of control
- T/C [3]: 99 % of control
- T/C (dose: 100.0 mg/kg/injection, schedule: Q04DX003 (ip), vehicle: water): 99 % of control and 108 % of control
- T/C (dose: 200.0 mg/kg/injection, schedule: Q01DX009 (ip), vehicle: water): 101 % of control
- T/C (dose: 200.0 mg/kg/injection, schedule: Q04DX003 (ip), vehicle: water): 104 % of control and 110 % of control

Structure (SMILES): O=C(COc1ccc(Cl)c(Cl)c1)N(Cc1ccccc1)Cc1cccnc1
- T/C (dose: 50.0 mg/kg/injection, schedule: Q04DX003 (ip), vehicle: Klucel (hydroxypropylcellulose) (HPC)): 86 % of control
- T/C [4]: 95 % of control
- T/C [5]: 104 % of control

Structure (SMILES): CC1(C#N)c2ccccc2C=CN1C(=O)c1ccccc1 (stereo unspecified)
- T/C [6]: 90 % of control
- T/C [4]: 100 % of control
- T/C [7]: 100 % of control
- T/C [5]: 95 % of control
- T/C [8]: 100 % of control
- T/C [9]: 100 % of control

Structure (SMILES): CNCCN(C)CCN(C)Cc1ccc(OC)cc1
- T/C [1]: 101 % of control
- T/C (dose: 50.0 mg/kg/injection, schedule: Q01DX009 (ip), vehicle: saline): 111 % of control
- T/C [2]: 110 % of control
- T/C [10]: 101 % of control
- T/C [3]: 93 % of control
- T/C (dose: 200.0 mg/kg/injection, schedule: Q01DX009 (ip), vehicle: saline): 104 % of control

Structure (SMILES): Oc1ccc(Nc2ccnc3cc(Cl)ccc23)cc1CN(CCCl)CCCl
- T/C (dose: 1.25 mg/kg/injection, schedule: Q01DX009 (ip), vehicle: saline): 177 % of control
- T/C (dose: 2.5 mg/kg/injection, schedule: Q01DX009 (ip), vehicle: saline): 194 % of control
- T/C (dose: 3.3 mg/kg/injection, schedule: Q04DX003 (ip), vehicle: saline): 163 % of control
- T/C (dose: 5.0 mg/kg/injection, schedule: Q01DX009 (ip), vehicle: saline): 150 % of control
- T/C (dose: 5.0 mg/kg/injection, schedule: Q04DX003 (ip), vehicle: saline): 163 % of control
- T/C (dose: 10.0 mg/kg/injection, schedule: Q04DX003 (ip), vehicle: saline with Tween-80): 160 % of control

Structure (SMILES): COc1cc(C=Nc2ccc(-n3ccnc3C)cc2)ccc1N(CCCl)CCCl
- T/C (dose: 5.0 mg/kg/injection, schedule: Q01DX009 (ip), vehicle: Klucel (hydroxypropylcellulose) (HPC)): 157 % of control
- T/C (dose: 7.5 mg/kg/injection, schedule: Q01DX009 (ip), vehicle: Klucel (hydroxypropylcellulose) (HPC)): 162 % of control

Structure (SMILES): COc1cc2c3c4c1OCc1c5c(cc(c1-4)CC3[N+](C)(C)CC2)OCO5 (stereo unspecified)
- T/C (dose: 6.25 mg/kg/injection, schedule: Q01DX001 (ip), vehicle: saline): 105 % of control
- T/C (dose: 12.5 mg/kg/injection, schedule: Q01DX001 (ip), vehicle: saline): 99 % of control

Structure (SMILES): O=c1c(N=Nc2ccccc2)c[nH]n1-c1ccccc1
- T/C (dose: 62.5 mg/kg/injection, schedule: Q01DX009 (ip), vehicle: saline with Tween-80): 90 % of control
- T/C (dose: 250.0 mg/kg/injection, schedule: Q01DX009 (ip), vehicle: saline with Tween-80): 88 % of control

Structure (SMILES): Oc1ccc2ccccc2c1N=Nc1ccccc1
- T/C [6]: 87 % of control
- T/C [4]: 109 % of control
- T/C [7]: 104 % of control
- T/C [5]: 104 % of control
- T/C [8]: 91 % of control
- T/C [9]: 104 % of control

Structure (SMILES): CCN(CC)CCOc1cc(C)ccc1C(C)C
- T/C [11]: 96 % of control
- T/C (dose: 25.0 mg/kg/injection, schedule: Q04DX003 (ip), vehicle: saline with Tween-80): 109 % of control
- T/C [12]: 111 % of control
- T/C [13]: 109 % of control
- T/C [14]: 107 % of control
- T/C [15]: 118 % of control

Structure (SMILES): COC(=O)Nc1cccc(NC(=O)C(=O)O)c1
- T/C [13]: 100 % of control
- T/C [15]: 100 % of control

Structure (SMILES): O=C1OC(O)C(Cl)=C1Cl (stereo unspecified)
- T/C (dose: 1.56 mg/kg/injection, schedule: Q01DX009 (ip), vehicle: saline with Tween-80): 101 % of control
- T/C (dose: 3.12 mg/kg/injection, schedule: Q01DX009 (ip), vehicle: saline with Tween-80): 107 % of control
- T/C (dose: 6.25 mg/kg/injection, schedule: Q01DX009 (ip), vehicle: saline with Tween-80): 109 % of control and 115 % of control
- T/C (dose: 12.5 mg/kg/injection, schedule: Q01DX009 (ip), vehicle: saline with Tween-80): 115 % of control

Structure (SMILES): CNc1ccc(C(=O)O)c(Cl)c1
- T/C (dose: 75.0 mg/kg/injection, schedule: Q04DX003 (ip), vehicle: saline): 100 % of control
- T/C (dose: 150.0 mg/kg/injection, schedule: Q04DX003 (ip), vehicle: saline): 95 % of control
- T/C (dose: 300.0 mg/kg/injection, schedule: Q04DX003 (ip), vehicle: saline): 100 % of control

Structure (SMILES): Cc1c(Cl)c(Cl)c(C)c(Cl)c1Cl
- T/C [4]: 94 % of control
- T/C [5]: 100 % of control
- T/C [9]: 100 % of control

Structure (SMILES): CCCCN(C(=O)C(F)(F)F)C(C)(C)C(SSSC(c1cccs1)C(C)(C)N(CCCC)C(=O)C(F)(F)F)c1cccs1 (stereo unspecified)
- T/C [15]: 109 % of control

Structure (SMILES): CC(=O)NC1CCCN(O)C(=O)/C=C(/C)CCOC(=O)C(NC(C)=O)CCCN(O)C(=O)/C=C(/C)CCOC(=O)C(NC(C)=O)CCCN(O)C(=O)/C=C(/C)CCOC1=O.[Fe] (stereo unspecified)
- T/C (dose: 12.5 mg/kg/injection, schedule: Q01DX009 (ip), vehicle: Klucel (hydroxypropylcellulose) (HPC)): 86 % of control
- T/C (dose: 25.0 mg/kg/injection, schedule: Q01DX009 (ip), vehicle: Klucel (hydroxypropylcellulose) (HPC)): 92 % of control
- T/C [16]: 99 % of control

Structure (SMILES): CCN(CC)CCNc1ccc(C)c2sc3ccccc3c(=O)c12
- T/C (dose: 12.5 mg/kg/injection, schedule: Q01DX009 (ip), vehicle: saline): 97 % of control
- T/C (dose: 25.0 mg/kg/injection, schedule: Q01DX009 (ip), vehicle: saline): 109 % of control
- T/C (dose: 50.0 mg/kg/injection, schedule: Q01DX010 (ip), vehicle: saline): 150 % of control and 170 % of control
- T/C [10]: 158 % of control
- T/C (dose: 100.0 mg/kg/injection, schedule: Q01DX010 (ip), vehicle: saline): 90 % of control

Structure (SMILES): CC1(C)CC(C)(OC(=O)c2ccccc2)N=N1 (stereo unspecified)
- T/C (dose: 25.0 mg/kg/injection, schedule: Q01DX005 (ip), vehicle: other): 98 % of control
- T/C (dose: 50.0 mg/kg/injection, schedule: Q01DX005 (ip), vehicle: other): 98 % of control
- T/C (dose: 100.0 mg/kg/injection, schedule: Q01DX005 (ip), vehicle: other): 99 % of control
- T/C (dose: 200.0 mg/kg/injection, schedule: Q01DX005 (ip), vehicle: other): 99 % of control
- T/C (dose: 400.0 mg/kg/injection, schedule: Q01DX005 (ip), vehicle: other): 119 % of control

Structure (SMILES): O=[N+]([O-])c1ccc(/C=[N+](\[O-])CCO)o1
- T/C [12]: 111 % of control
- T/C [14]: 113 % of control
- T/C (dose: 200.0 mg/kg/injection, schedule: Q01DX009 (ip), vehicle: saline with Tween-80): 111 % of control

Structure (SMILES): CCOC(=O)c1c(NC(=O)CCC(=O)Nc2sc(C)c(C)c2C(=O)OCC)sc(C)c1C
- T/C [11]: 109 % of control
- T/C [12]: 90 % of control
- T/C (dose: 50.0 mg/kg/injection, schedule: Q04DX003 (ip), vehicle: saline): 87 % of control
- T/C [14]: 90 % of control
- T/C (dose: 400.0 mg/kg/injection, schedule: Q04DX003 (ip), vehicle: saline): 91 % of control

Structure (SMILES): O=C(NN(c1ccc([N+](=O)[O-])cc1)c1ccc([N+](=O)[O-])cc1)c1ccccc1
- T/C [16]: 100 % of control
- T/C [6]: 105 % of control
- T/C [7]: 105 % of control

Structure (SMILES): CC(C)=CBr
- T/C (dose: 198.0 mg/kg/injection, schedule: Q01DX005 (ip), vehicle: saline): 92 % of control
- T/C (dose: 300.0 mg/kg/injection, schedule: Q01DX005 (ip), vehicle: saline): 100 % of control

Structure (SMILES): CC(C)CNC(c1ccc2c(c1)OCO2)C(O)c1ccc2c(c1)OCO2 (stereo unspecified)
- T/C (dose: 100.0 mg/kg/injection, schedule: Q01DX001 (ip), vehicle: saline with Tween-80): 100 % of control
- T/C (dose: 200.0 mg/kg/injection, schedule: Q01DX001 (ip), vehicle: saline with Tween-80): 115 % of control
- T/C (dose: 400.0 mg/kg/injection, schedule: Q01DX001 (ip), vehicle: saline with Tween-80): 108 % of control

Structure (SMILES): CN1CCC2=C(C1)C(N1CCCC1)CS(=O)(=O)O2 (stereo unspecified)
- T/C (dose: 12.5 mg/kg/injection, schedule: Q04DX002 (ip), vehicle: saline): 100 % of control
- T/C (dose: 25.0 mg/kg/injection, schedule: Q04DX002 (ip), vehicle: saline): 102 % of control
- T/C (dose: 50.0 mg/kg/injection, schedule: Q04DX002 (ip), vehicle: saline): 99 % of control
